For assay [1], the target named is T1, CGRP receptor (SK-N-MC cell membranes) (Homo sapiens, UniProt O60894+Q16602).
T1 construct: endogenous in cells; host or cells: SK-N-MC cells (membrane homogenate)
The experiment in a line: CGRP Binding Assay ([125I]-CGRP radioligand binding, SK-N-MC homogenate). Conditions: displacement of [125I]-CGRP, SK-N-MC homogenate; read-out: CGRP binding IC50.

Assay [2] deals with human cerebral vessels (CGRP-induced dilation). Nature of the assay: Ex Vivo Human Cerebral Artery Assay, reversal of CGRP-induced relaxation. Conditions: reversal of 1 nM hCGRP-induced relaxation, vessels pre-contracted with 10 mM KCl. An excerpt: Rationale and Overview. To provided direct evidence of the ability for novel compounds to reverse CGRP-induced dilation in human cerebral vessels, an ex vivo assay was design. Briefly, isolated vessel rings were mounted in a tissue bath where vessels were pre-contracted with potassium chloride (KCl) and fully dilated with hCGRP, then this relaxation was reversed by the cumulative addition of CGRP-receptor antagonists (complete details follow).
Tissue Samples. Autopsy samples of human arteries were obtained from vendors (ABS Inc. or NDRI). All vessels were transported on ice-cold HEPES buffer (composition in mM: NaCl 130, KCl 4, KH2PO4 1.2, MgSO4 1.2, CaCl2 1.8, Glucose 6, NaHCO3 4, HEPES 10, EDTA 0.025). Upon receipt, the vessels were placed in cold Kreb's buffer (composition in mM: NaCl 118.4, KCl 4.7, KH2PO4 1.2, MgSO4 1.2, CaCl2 1.8, Glucose 10.1, NaHCO3 25) saturated with carbogen (5% CO2 and 95% oxygen).
Isolated Tissue Baths. The vessels were cleaned of connective tissues and cut into cylindrical segments of 4-5 mm in length. The vessels were then mounted in tissue baths between two stainless steel hooks; one of which is fixed and the other of which was connected to a force displacement transducer. The vessel tension was continuously recorded using a data acquisition system (Powerlab, ADInstruments, Mountain View, Calif.) connected to the transducer. The tissue baths containing Krebs buffer and mounted vessels were temperature (37° C.) and pH (7.4) controlled with continuous bubbling of carbogen. The artery segments were allowed to equilibrate for about 30-45 min until a stable resting tone was achieved. Prior to the assay, vessels were primed (conditioned) with 100 mM KCl and subsequently washed. The vessels were pre-contracted with 10 mM KCl and fully dilated with 1 nM hCGRP. Concentration-response curves to CGRP-receptor antagonists were performed by the cumulative addition of drugs in half log units in fully dilated vessels. At each concentration, the effects of the drugs were expressed as % reversal of CGRP-induced relaxation in each vessel. The actual assay and data analysis were performed for each vessel individually, fitting the concentration-response data to a four parameter logistic function by non-linear regression analysis, to estimate the EC50 values.

The target of assay [3] is T2, human CGRP receptor (SK-N-MC cells) (Homo sapiens, UniProt O60894+Q16602).
T2 construct: SK-N-MC cells that endogenously express the human CGRP receptor; endogenous in cells; host or cells: SK-N-MC cells
T2 sequence (Q16602 23-461): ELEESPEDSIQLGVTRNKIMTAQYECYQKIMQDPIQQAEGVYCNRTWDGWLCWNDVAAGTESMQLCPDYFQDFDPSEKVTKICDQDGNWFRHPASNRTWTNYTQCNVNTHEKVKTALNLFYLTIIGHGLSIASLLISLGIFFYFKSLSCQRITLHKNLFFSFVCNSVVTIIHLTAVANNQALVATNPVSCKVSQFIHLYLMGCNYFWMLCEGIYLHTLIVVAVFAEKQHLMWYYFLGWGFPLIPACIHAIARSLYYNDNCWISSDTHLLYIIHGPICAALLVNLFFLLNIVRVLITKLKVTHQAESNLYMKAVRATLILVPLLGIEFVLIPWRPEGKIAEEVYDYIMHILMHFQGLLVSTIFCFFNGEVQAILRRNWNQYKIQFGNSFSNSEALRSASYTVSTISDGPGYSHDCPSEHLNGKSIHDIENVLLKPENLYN
T2 sequence (O60894 27-148): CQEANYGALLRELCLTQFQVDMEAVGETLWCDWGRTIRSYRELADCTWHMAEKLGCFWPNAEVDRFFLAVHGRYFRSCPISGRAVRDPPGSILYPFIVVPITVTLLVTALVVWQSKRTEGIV
Nature of the assay: Cyclic AMP Assay, functional antagonism of CGRP-induced cyclic AMP formation. Format: cell-based. Conditions: SK-N-MC cells, 0.3 nM CGRP; read-out: cAMP Function IC50. As for the experimental part: Functional Antagonism. Antagonism of the compounds of invention was determined by measuring the formation of cyclic AMP (adenosine 3′5′-cyclic monophosphate) in SK-N-MC cells that endogenously express the human CGRP receptor. […] For cyclic AMP measurements SK-N-MC cells were incubated with 0.3 nM CGRP alone or in the presence of various concentrations of the compounds of invention for 30 min at room temperature. […] Cyclic AMP was extracted using the lysis reagent and its concentration was determined by radioimmunoassay using RPA559 cAMP SPA Direct Screening Assay Kit (Amersham Pharmacia Biotech). IC50 values were calculated using Excel fit.

Where only a bound is given, the exact number is not on record here.

T1 sequence (Q16602 23-461): as the sequence (Q16602 23-461) above
T1 sequence (O60894 27-148): as the sequence (O60894 27-148) above

With `Cc1cc(CC(CC(=O)N2CCC3(CC2)OC(=O)Nc2ccccc23)C(=O)N2CCC(N3CCCCC3)CC2)cc2cn[nH]c12` (racemic) [Example 68, (±)-1-[1,4′]Bipiperidinyl-1′-yl-2-(7-methyl-1H-indazol-5-ylmethyl)-4-[1′,2′-dihydro-2′-oxospiro-[4H-3′,1-benzoxazine-4,4′-piperidinyl]-butane-1,4-dione], the IC50 in assay [1] and in assay [3] was under 0.01 µM in each case. In assay [2], the EC50 (usually the concentration at which the effect is half-maximal) was under 0.01 µM.

For the molecule `Cc1cc(CC(CC(=O)N2CCC(N3Cc4ccccc4NC3=O)CC2)C(=O)N(C)C)cc2cn[nH]c12` (racemic) [Example 72, (±)-N,N-Dimethyl-2-(7-methyl-1H-indazol-5-ylmethyl)-4-oxo-4-[4-(2-oxo-1,4-dihydro-2H-quinazolin-3-yl)-piperidin-1-yl]-butyramide], the IC50 in assay [1] and in assay [3] was under 0.01 µM throughout. In addition, the concentration giving a half-maximal response (EC50) in assay [2] is under 0.01 µM.

For `Cc1cc(CC(NC(=O)N2CCC3(CC2)OC(=O)Nc2ccccc23)C(=O)N2CCC(N3CCCCC3)CC2)cc2cn[nH]c12` (racemic) [Example 25, (±)-1-(7-Methyl-1H-indazol-5-ylmethyl)-2-[1,4-bipiperidin]-1-yl-2-oxoethyl]-1′,2′-dihydro-2′-oxospiro-[4H-3′,1-benzoxazine-4,4′-piperidine]-1-carboxamide], the IC50 in assay [1] and in assay [3] was under 0.01 µM throughout. Moreover, in assay [2], the half-maximal effective concentration (EC50) is under 0.01 µM.

Turning to `O=C1Nc2ccccc2C2(CCN(C(=O)N[C@H](Cc3csc4ccccc34)C(=O)N3CCC(N4CCCCC4)CC3)CC2)O1` [Example 64, N-[(1R)-1-(Benzo[b]thien-3-ylmethyl)-2-[1,4′-bipiperidin]-1′-yl-2-oxoethyl]-1,2-dihydro-2-oxospiro-[4H-3,1-benzoxazine-4,4′-piperidine]-1′-carboxamide], the IC50 (in general, the concentration at which inhibition is half-maximal) in assay [1] is 0.01 to 0.1 µM. Further, the EC50 in assay [2] lay in the range of 0.01 to 0.1 µM.

In the case of `COC(=O)C(CC(=O)N1CCC(N2Cc3ccccc3NC2=O)CC1)Cc1cc(C)c2[nH]ncc2c1` (racemic) [Example 67, (±)-2-(7-Methyl-1H-indazol-5-ylmethyl)-4-oxo-4-[4-(2-oxo-1,4-dihydro-2H-quinazolin-3-yl)-piperidin-1-yl]-butyric acid methyl ester], the results for the half-inhibitory concentration (IC50) in assay [1] and in assay [3] were 0.01 to 0.1 µM and 0.1 to 1 µM, respectively. Further, the EC50 in assay [2] is 0.01 to 0.1 µM.

For the molecule `O=C(C[C@H](Nc1ccc2[nH]ccc2c1)C(=O)N1CCC(N2CCCCC2)CC1)N1CCC(N2Cc3ccccc3NC2=O)CC1` [Example 86, (L)-1-[1,4′]Bipiperidinyl-1′-yl-2-(1H-indol-5-ylamino)-4-[4-(2-oxo-1,4-dihydro-2H-quinazolin-3-yl)-piperidin-1-yl]-butane-1,4-dione], the IC50 in assay [1] was 0.1 to 1 µM; in assay [3] it was 0.01 to 0.1 µM. Besides, the EC50 in assay [2] was in the range of 0.1 to 1 µM.

For the molecule `Cc1cc(CC(NC(=O)N2CCC(N3Cc4ccccc4NC3=O)CC2)C(=O)N2CCN(C)CC2)cc2cn[nH]c12` (racemic) [Example 19, (±)-4-(2-Oxo-1,4-dihydro-2H-quinazolin-3-yl)-piperidine-1-carboxylic acid[1-(7-methyl-1H-indazol-5-ylmethyl)-2-(4-methyl-piperazin-1-yl)-2-oxo-ethyl]-amide], the IC50 in assay [1] and in assay [3] was under 0.01 µM in each case. In addition, the 50% effective concentration (EC50) in assay [2] is under 0.01 µM.

With `Cc1cc(CC(NC(=O)N2CCC(N3Cc4ccccc4NC3=O)CC2)C(=O)N2CCCC2)cc2cn[nH]c12` (racemic) [Example 20, (±)-4-(2-Oxo-1,4-dihydro-2H-quinazolin-3-yl)-piperidine-1-carboxylic acid[1-(7-methyl-1H-indazol-5-ylmethyl)-2-oxo-2-pyrrolidin-1-yl-ethyl]-amide], the IC50 in assay [1] and in assay [3] was under 0.01 µM in each case. In assay [2], the EC50 was under 0.01 µM.

For the molecule `Cc1cc(CC(CC(=O)N2CCC3(CC2)OC(=O)Nc2ccccc23)C(=O)N(C)C)cc2cn[nH]c12` (racemic) [Example 76, (±)-N,N-Dimethyl-2-(7-methyl-1H-indazol-5-ylmethyl)-4-oxo-4-[1′,2′-dihydro-2′-oxospiro-[4H-3′,1-benzoxazine-4,4′-piperidinyl]-butyramide], the half-inhibitory concentration (IC50) in assay [1] and in assay [3] was 0.01 to 0.1 µM each time. For the same molecule, in assay [2], the EC50 was under 0.01 µM.

`O=C(NC(CN1CCc2[nH]ncc2C1)C(=O)N1CCC(N2CCCCC2)CC1)N1CCC(N2Cc3ccccc3NC2=O)CC1` (racemic) [Example 54, (±)-4-(2-Oxo-1,4-dihydro-2H-quinazolin-3-yl)-piperidine-1-carboxylic acid[2-[1,4′]bipiperidinyl-1′-yl-2-oxo-1-(1,4,6,7-tetrahydro-pyrazolo[4,3-c]pyridin-5-ylmethyl)-ethyl]-amide]: the IC50 fell in the range of 0.01 to 0.1 µM in assay [1] and 0.1 to 1 µM in assay [3]. Moreover, the half-maximal effective concentration (EC50) in assay [2] is under 0.01 µM.

In the case of `Cc1cc(CC(CC(=O)N2CCC(N3Cc4ccccc4NC3=O)CC2)C(=O)N2CCC(C)CC2)cc2cn[nH]c12` (racemic) [Example 74, (±)-2-(7-Methyl-1H-indazol-5-ylmethyl)-1-(4-methyl-piperidin-1-yl)-4-[4-(2-oxo-1,4-dihydro-2H-quinazolin-3-yl)-piperidin-1-yl]-butane-1,4-dione], the IC50 in assay [1] and in assay [3] was under 0.01 µM in each case. In assay [2], the 50% effective concentration (EC50) is under 0.01 µM.

As to `CC(C)(C)OC(=O)n1ncc2cc(CC(CC(=O)N3CCC(N4Cc5ccccc5NC4=O)CC3)C(=O)N3CCC(N4CCCCC4)CC3)ccc21` (racemic) [Example 83, (±)-5-{2-([1,4′]Bipiperidinyl-1′-carbonyl)-4-oxo-4-[4-(2-oxo-1,4-dihydro-2H-quinazolin-3-yl)-piperidin-1-yl]-butyl}-indazole-1-carboxylic acid tert-butyl ester], the IC50 in assay [1] was in the range of 0.01 to 0.1 µM; in assay [3] it was 0.1 to 1 µM.

For the molecule `Cc1cc(CC(NC(=O)N2CCC(N3Cc4ccccc4NC3=O)CC2)C(=O)O)cc2cn[nH]c12` (racemic) [Example 15, (±)-3-(7-Methyl-1H-indazol-5-yl)-2-{[4-(2-oxo-1,4-dihydro-2H-quinazolin-3-yl)-piperidine-1-carbonyl]-amino}-propionic acid], the IC50 in assay [1] and in assay [3] was 0.1 to 1 µM each time.

Regarding `Cc1cc(CC(NC(=O)N2CCC3(CC2)CC(=O)Nc2ccccc23)C(=O)N2CCC(N3CCCCC3)CC2)cc2cn[nH]c12` (racemic) [Example 31, (±)-1-(7-Methyl-1H-indazol-5-ylmethyl)-2-[1,4-bipiperidin]-1-yl-2-oxoethyl]3′,4′-dihydro-2′-oxospiro-[piperidine-4,4′-(1H)-quinoline]-1-carboxamide], the IC50 in assay [1] and in assay [3] was under 0.01 µM throughout.

On to `COC(=O)C(Cc1cc(C)c2[nH]ncc2c1)NC(=O)N1CCC(N2Cc3ccccc3NC2=O)CC1` (racemic) [Example 12, (±)-3-(7-Methyl-1H-indazol-5-yl)-2-{[4-(2-oxo-1,4-dihydro-2H-quinazolin-3-yl)-piperidine-1-carbonyl]-amino}-propionic acid methyl ester], for which the half-maximal inhibitory concentration (IC50) was in the range of 0.01 to 0.1 µM in assay [1] and 0.1 to 1 µM in assay [3].

On to `O=C(NC(Cc1ccc2[nH]ncc2c1)C(=O)N1CCC(N2CCCCC2)CC1)N1CCC(n2c(=O)[nH]c3ccccc32)CC1` (racemic) [Example 4, (±)-4-(2-Oxo-2,3-dihydro-benzoimidazol-1-yl)-piperidine-1-carboxylic acid[2-[1,4′]bipiperidinyl-1′-yl-1-(1H-indazol-5-ylmethyl)-2-oxo-ethyl]-amide], for which the half-inhibitory concentration (IC50) in assay [1] and in assay [3] was 0.01 to 0.1 µM throughout.

`Cc1cc(CC(NC(=O)N2CCC3(CC2)OC(=O)Nc2ccccc23)C(=O)N(C)C)cc2cn[nH]c12` (racemic) [Example 27, (±)-[1-Dimethylcarbamoyl-2-(7-methyl-1H-indazol-5-yl)-ethyl]-1′,2′-dihydro-2′-oxospiro-[4H-3′,1-benzoxazine-4,4′-piperidine]-1-carboxamide]: the concentration for half-maximal inhibition (IC50) lay in the range of 0.01 to 0.1 µM in assay [1] and 0.1 to 1 µM in assay [3].

Values taken from patent publication US7842808B2, “Anti-migraine spirocycles” (Bristol-Myers Squibb Company, priority 2002, dated 2010).
